Data on 14 compounds can be found in paper PMC7734281, “Functionalized Oxoindolin Hydrazine Carbothioamide Derivatives as Highly Potent Inhibitors of Nucleoside Triphosphate Diphosphohydrolases” (Frontiers in Pharmacology, 2020).

Common to all, as to format: biochemical
Experiment [1] has as its target T1, h-NTPDase8 (Homo sapiens, UniProt Q5MY95).
T1 construct: made in house; host or cells: COS-7 cells, transient transfection; crude protein extract after sonication
T1 sequence (Q5MY95 1-495): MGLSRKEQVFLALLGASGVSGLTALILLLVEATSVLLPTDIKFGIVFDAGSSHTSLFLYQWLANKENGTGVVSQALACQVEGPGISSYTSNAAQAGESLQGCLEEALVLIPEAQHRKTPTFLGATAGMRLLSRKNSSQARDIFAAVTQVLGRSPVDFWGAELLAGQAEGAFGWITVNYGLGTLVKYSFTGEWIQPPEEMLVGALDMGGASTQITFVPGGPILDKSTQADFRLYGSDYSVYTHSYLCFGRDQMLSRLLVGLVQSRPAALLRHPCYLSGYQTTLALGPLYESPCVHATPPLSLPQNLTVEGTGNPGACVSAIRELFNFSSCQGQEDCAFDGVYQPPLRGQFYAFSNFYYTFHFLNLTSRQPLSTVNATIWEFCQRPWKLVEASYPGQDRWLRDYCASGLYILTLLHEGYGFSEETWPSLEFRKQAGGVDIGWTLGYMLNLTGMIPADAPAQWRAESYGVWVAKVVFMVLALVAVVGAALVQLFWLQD
As to the kind of experiment: h-NTPDase8 inhibition, malachite green assay. As to conditions: for inhibition at 100 µM: compound 100 µM; for IC50: ATP 100 µM substrate, mean ± SEM of three independent experiments. On the procedure:
(§1) COS-7 cells were transfected with plasmids expressing human or mouse NTPDases1, -2, -3, and -8 as previously described ([Levesque et al., 2007]; [Lecka et al., 2014]) Briefly, the confluent cells were transferred to Dulbecco’s Modified Eagle’s Medium containing no fetal bovine serum. Then, these cells were incubated with plasmid DNA (6 µg) and Lipofectamine reagent (24 µl) at 37°C. After 5 h, transfection was terminated with the addition of an equal volume of DMEM/F-12 (supplemented with 20% FBS) and cells were collected by harvesting after 40–72 h.
(§2) To prepare protein extracts, transfected COS-7 cells were washed three times with tris-saline buffer while temperature was maintained at 4°C. Then cells were scraped and resuspended in harvesting buffer containing 95 mM NaCl, 45 mM tris and 0.1 mM phenylmethylsulfonyl fluoride (pH 7.5). Cells were again washed twice by centrifugation for 5 min at 300 × g at 4°C and then resuspended in harvesting buffer (supplemented with 10 μg ml aprotinin). Following sonication, cellular debris was isolated by 10 min centrifugation at 300 g at 4°C. Subsequently, supernatant was removed very carefully and protein concentration was determined by using Bradford microplate assay while using the bovine serum albumin as a standard ([Bradford, 1976]).
(§3) The inhibitory effects of synthesized compounds on h-NTPDase1, -2, -3, and -8 were determined as described previously, although with slight modifications ([Martín-Satué et al., 2009]). Assay was conducted in a reaction medium containing 50 mM tris-HCl and 5 mM CaCl2 (pH 7.4). All the test compounds were dissolved in dimethyl sulfoxide (DMSO, 10%) and initially screened at a concentration of 100 µM. A reaction mixture containing 55 µl of assay buffer, 10 µl of test compound solution and 10 µl of h-NTPDase1 (58 ng/well) or h-NTPDase2 (79 ng/well) or h-NTPDase3 (163 ng/well) or h-NTPDase8 (66 ng/well) was incubated at 37°C for 10 min. Following the incubation, a 10 µl solution of adenosine triphosphate (ATP, 100 µm) was added as substrate and reaction mixture was again incubated for 15 min at 37°C. The reaction was stopped by adding malachite green reagent (15 µl) and placed at room temperature for 4 to 6 min. Finally, absorbance was measured at 630 nm by using Omega FLUOstar microplate reader (BMG Labtech, Ortenberg, Germany) and % inhibitions were calculated. For compounds showing more than 50% inhibition of any isozyme, dose response curves were generated and their IC50 values were determined. Three separate enzyme inhibition assays were carried out in triplicate and dose-response curve were generated by using PRISM 5.0 (GraphPad, San Diego, United States).

Experiment [2] deals with T2, m-NTPDase8 (Mus musculus, UniProt Q8K0L2).
T2 construct: made in house; host or cells: COS-7 cells, transient transfection; crude protein extract after sonication
T2 sequence (Q8K0L2 1-497): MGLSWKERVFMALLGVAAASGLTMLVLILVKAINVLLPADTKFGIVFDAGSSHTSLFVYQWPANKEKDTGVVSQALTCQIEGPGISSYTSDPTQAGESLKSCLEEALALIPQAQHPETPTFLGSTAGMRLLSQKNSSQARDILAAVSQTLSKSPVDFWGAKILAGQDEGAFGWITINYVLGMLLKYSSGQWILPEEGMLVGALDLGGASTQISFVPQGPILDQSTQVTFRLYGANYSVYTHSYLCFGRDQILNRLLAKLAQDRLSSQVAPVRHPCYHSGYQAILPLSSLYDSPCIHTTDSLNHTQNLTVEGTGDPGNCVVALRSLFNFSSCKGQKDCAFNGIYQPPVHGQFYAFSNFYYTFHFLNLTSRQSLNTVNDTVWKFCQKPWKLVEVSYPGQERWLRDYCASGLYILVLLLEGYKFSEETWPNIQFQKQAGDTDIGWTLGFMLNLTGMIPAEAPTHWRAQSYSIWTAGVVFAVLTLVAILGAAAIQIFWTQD
As to the kind of experiment: m-NTPDase8 inhibition, malachite green assay. To be noted: for inhibition at 100 µM: compound 100 µM; for IC50: mean ± SEM of three independent experiments. On the procedure:
as §1, §2, §3
Same procedure was adopted to determine the inhibitory effects of compounds on mouse NTPDases (m-NTPDases). However, the amount of protein used was as follows: m-NTPDase1 (82 ng/well), m-NTPDase2 (57 ng/well), m-NTPDase3 (110 ng/well) and m-NTPDase8 (79 ng/well)

In experiment [3] the target is T3, h-NTPDase1 (Homo sapiens, UniProt P49961).
T3 construct: made in house; host or cells: COS-7 cells, transient transfection; crude protein extract after sonication
T3 sequence (P49961 1-510): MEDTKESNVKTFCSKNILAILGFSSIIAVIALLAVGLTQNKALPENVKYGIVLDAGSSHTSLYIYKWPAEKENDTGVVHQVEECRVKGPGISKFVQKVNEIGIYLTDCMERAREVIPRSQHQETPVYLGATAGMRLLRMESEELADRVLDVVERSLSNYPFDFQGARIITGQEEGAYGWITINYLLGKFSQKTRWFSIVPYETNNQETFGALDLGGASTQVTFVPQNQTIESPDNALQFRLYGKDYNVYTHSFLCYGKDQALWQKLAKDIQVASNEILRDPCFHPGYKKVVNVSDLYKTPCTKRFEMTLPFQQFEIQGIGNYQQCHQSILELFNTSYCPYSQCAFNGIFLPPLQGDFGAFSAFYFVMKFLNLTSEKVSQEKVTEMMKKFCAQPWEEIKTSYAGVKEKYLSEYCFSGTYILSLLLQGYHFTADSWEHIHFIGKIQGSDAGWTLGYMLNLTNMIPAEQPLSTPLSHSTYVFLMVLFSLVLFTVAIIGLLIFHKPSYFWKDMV
Put plainly: h-NTPDase1 inhibition, malachite green assay. To be noted: for inhibition at 100 µM / Ki / IC50: human NTPDase1; for inhibition at 100 µM: compound 100 µM; for IC50: ATP 100 µM substrate, mean ± SEM of three independent experiments. As for the experimental part: as §1, §2, §3

Molecules are shown by their SMILES.

Regarding `O=C1Nc2ccccc2/C1=N/NC(=S)Nc1ccccc1` [8a, (Z)-2-(2-oxoindolin-3-ylidene)-N-phenylhydrazine-1-carbothioamide], the figures for the inhibition at 100 µM in experiment [1], in experiment [2] and in experiment [3] were 24%, 28% and 45%, respectively.

For the compound `O=C1Nc2ccccc2/C1=N/NC(=S)Nc1ccc([N+](=O)[O-])cc1` [8b, (Z)-N-(4-nitrophenyl)-2-(2-oxoindolin-3-ylidene)hydrazine-1-carbothioamide], in experiment [2], testing at 100 µM gave an inhibition of 30%. For the same compound, in experiment [3], the Ki (as a rule, the equilibrium dissociation constant of an inhibitor or competing ligand from its target) is 0.04 µM and it took 0.29 ± 0.02 µM to reach half-maximal inhibition (IC50).

On to `O=C1Nc2ccccc2/C1=N/NC(=S)Nc1ccc(Cl)cc1` [8c, (Z)-N-(4-chlorophenyl)-2-(2-oxoindolin-3-ylidene)hydrazine-1-carbothioamide], for which the inhibitory constant (Ki) in experiment [1] came out at 0.11 µM; in experiment [3] it was 0.03 µM. Moreover, the IC50 (commonly the concentration needed to halve the response being measured) in experiment [1] came to 0.24 ± 0.02 µM; in experiment [3] it was 0.23 ± 0.01 µM. The inhibition (as a rule, the drop in the measured response relative to a control, in per cent) at 100 µM in experiment [2] worked out at 36%.

Compound `O=C1Nc2ccccc2/C1=N/NC(=S)Nc1ccc(F)cc1` [8d, (Z)-N-(4-fluorophenyl)-2-(2-oxoindolin-3-ylidene)hydrazine-1-carbothioamide] had an inhibition at 100 µM in experiment [1] of 33%. Also, in experiment [2], affinity was put at a Ki of 0.17 µM and the concentration for half-maximal inhibition (IC50) was 1.45 ± 0.12 µM. In addition, testing at 100 µM in experiment [3] gave an inhibition of 49.1%.

As for `COc1cccc(NC(=S)N/N=C2\C(=O)Nc3ccccc32)c1` [8e, (Z)-N-(3-methoxyphenyl)-2-(2-oxoindolin-3-ylidene)hydrazine-1-carbothioamide], the values for the Ki in experiment [2] and in experiment [3] were 0.44 µM and 0.15 µM, respectively. The concentration for half-maximal inhibition (IC50) in experiment [2] came out at 3.8 ± 0.21 µM; in experiment [3], 0.15 ± 0.009 µM. For the same compound, in experiment [3] (Lineweaver-Burk plot), the “Mode of inhibition of h-NTPDase1” value is reported as “non-competitive”.

In experiment [1], `O=C1Nc2ccccc2/C1=N/NC(=S)NCc1ccccc1` [8f, (Z)-N-benzyl-2-(2-oxoindolin-3-ylidene)hydrazine-1-carbothioamide] came in with an inhibition at 100 µM of under 50%. Besides, the inhibition at 100 µM in experiment [2] is 38%. In experiment [3], this compound registered an inhibitory constant (Ki) of 0.03 µM and an IC50 of 0.24 ± 0.01 µM.

`O=C1Nc2ccccc2/C1=N/NC(=S)Nc1cccc(Cl)c1` [8g, (Z)-N-(3-chlorophenyl)-2-(2-oxoindolin-3-ylidene)hydrazine-1-carbothioamide]: the inhibition at 100 µM in experiment [1] came out at 7%; in experiment [2], 36%; in experiment [3], 28%.

`Cc1ccc(NC(=S)N/N=C2\C(=O)Nc3ccccc32)cc1` [8h, (Z)-2-(2-oxoindolin-3-ylidene)-N-(p-tolyl)hydrazine-1-carbothioamide]: the inhibition at 100 µM in experiment [1] came out at 22%; in experiment [2], 28%; in experiment [3], 49%.

In experiment [1], `Cc1cccc(C)c1NC(=S)N/N=C1\C(=O)Nc2ccccc21` [8i, (Z)-N-(2,6-dimethylphenyl)-2-(2-oxoindolin-3-ylidene)hydrazine-1-carbothioamide] displayed an inhibition at 100 µM of 17%. The same compound gave an inhibition at 100 µM in experiment [2] of 26%. Moreover, in experiment [3], the affinity corresponds to a Ki of 0.24 µM and the half-maximal inhibitory concentration (IC50) was determined as 1.63 ± 0.15 µM.

`COc1ccc(OC)c(NC(=S)N/N=C2\C(=O)Nc3ccccc32)c1` [8j, (Z)-N-(2,5-dimethoxyphenyl)-2-(2-oxoindolin-3-ylidene)hydrazine-1-carbothioamide] displayed an inhibition at 100 µM in experiment [1] of 19%. Testing at 100 µM in experiment [2] gave an inhibition of 32%. Moreover, in experiment [3], the affinity corresponds to a Ki of 0.02 µM and half-maximal inhibition (IC50) required 0.15 ± 0.01 µM.

Consider `COc1ccc(NC(=S)NNC2=c3ccccc3=NC2=O)cc1` [8k, (Z)-N-(4-methoxyphenyl)-2-(2-oxoindolin-3-ylidene)hydrazine-1-carbothioamide], for which the inhibition at 100 µM in experiment [1] stood at 46%; in experiment [2], 24%; in experiment [3] it was 44%.

Regarding `O=C1Nc2ccccc2/C1=N/NC(=S)Nc1c(F)cccc1F` [8l, (Z)-N-(2,6-difluorophenyl)-2-(2-oxoindolin-3-ylidene)hydrazine-1-carbothioamide], the inhibition at 100 µM in experiment [1] is under 50%. Moreover, the inhibition at 100 µM in experiment [2] worked out at 13%. In experiment [3], this compound displayed a Ki of 0.04 µM and an IC50 of 0.3 ± 0.03 µM.

Turning to `CCNC(=S)N/N=C1\C(=O)Nc2ccccc21` [8m, (Z)-N-ethyl-2-(2-oxoindolin-3-ylidene)hydrazine-1-carbothioamide], the inhibition at 100 µM in experiment [1] turned out to be 38%; in experiment [2], 35%. In addition, in experiment [3], the inhibition constant (Ki) was determined as 0.38 µM. This compound came in with an IC50 in experiment [3] of 2.6 ± 0.02 µM.

Take `Cc1ccc(C(=O)Nc2ccc(S(=O)(=O)O)c3cc(S(=O)(=O)O)cc(S(=O)(=O)O)c23)cc1NC(=O)c1cccc(NC(=O)Nc2cccc(C(=O)Nc3cc(C(=O)Nc4ccc(S(=O)(=O)O)c5cc(S(=O)(=O)O)cc(S(=O)(=O)O)c45)ccc3C)c2)c1` [Suramin, reference compound]: the concentration for half-maximal inhibition (IC50) in experiment [1] is over 100 µM; in experiment [2] it was over 100 µM; in experiment [3], 16.1 ± 1.02 µM. This compound also gave a Ki in experiment [3] of 2.33 µM.
